Test: Solubility test: 20 mg sample in 10 g solvent, evaluated visually
Format: physicochemical
Conditions: 20 mg in 10 g solvent (0.2 mass %), room temperature / 25° C., visual
Procedure: For evaluating the applicability thereof to a wet process, the compound to be analyzed was tested in a dissolution test in various solvents. As a comparative case, anthracene was tested for the dissolution test.
Concretely, 20 mg of the sample was weighed, and the solubility thereof (0.2 mass %) in 10 g of a solvent at room temperature was visually evaluated.
In Table 1, A means soluble, and B means insoluble. The standard of “soluble” was set as the case where the compound dissolved in an amount of 0.2% by mass or more at a solvent temperature of 25° C.

c1ccc2cc3ccccc3cc2c1 [Comparative Example 3, Anthracene]
Solubility Test Cyclohexane (cyclohexane): B (B means insoluble)
Solubility Test Hexane (hexane): B (B means insoluble)

Reference: patent publication US20150284305A1, “FLUORINE-CONTAINING COMPOUND AND METHOD FOR PRODUCING SAME” (Asahi Glass Company, Limited, priority 2012, published 2015)
